Results on 5 compounds are retold here after US11225657B2, “Synthetic auxotrophs with ligand dependent essential genes for biosafety” (priority 2015, dated 2022).

Type in all cases: cell-based, E. coli
One test relates to pheS.GL2. In words: Chemical complementation of growth of ligand-dependent strain pheS.GL2. The note with it: LB agar plates. The method, then: (§1) A second positive selection at block 140 was performed in order to enrich for desirable ligand-dependent strains. Library members surviving the negative selection were collected, residual penicillin was washed away, and cells were spread onto LB agar plates containing complementing chemicals. Resulting colonies were screened at block 150 for ligand-dependent growth by replica-spotting onto LB agar plates with and without complementing chemicals. Strains that grew only in the presence of chemicals were chosen for further characterization.
(§2) In this example, the ligand-dependent strains were generated for 5 essential genes (pheS, dnaN, tyrS, metG, and adk). Each ligand-dependent strain carried between 3 and 7 mutations at the targeted essential gene (Table 1). A mixture of 4 small molecules was used to generate the ligand-dependent strains. Each resulting strain was tested against each small molecule individually. The most promiscuous strain, metG.GL15, was complemented by all 4 ligands. Other mutants responded to 2 or 3 ligands. Additionally, escape frequency was measured on media lacking any of the 4 ligands. The highest escape frequency was 8×10^−4 for adk.GL1, while the lowest escape frequency was 3×10^−9 for pheS.GL2.
The ligand-dependent strain pheS.GL2 was derived from a directed evolution procedure using both targeted and random mutagenesis. […]

The test system of a further test is tyrS.GL7. The test can be described thus: Chemical complementation of growth of ligand-dependent strain tyrS.GL7. The method, then:
as §1, §2
The ligand-dependent strain tyrS.GL7 and metG.GL15 were generated in under 2 weeks with a single cycle of protein engineering. […]

Test [1] concerns rapamycin-dependent mutant (uniRapR insertion in dnaN). The test can be described thus: Ligand-dependent growth of rapamycin-dependent dnaN-uniRapR insertion mutant at 42° C. The following applies: for nonspecific chemical complementation (growth): plates with ligand instead of rapamycin. From the text: Starting with a plasmid borne copy of wild type dnaN under constitutive expression, the uniRapR domain was inserted into 4 candidate insertion sites with a 3 amino acid linker library upstream and downstream of the uniRapR domain. The resulting libraries (all four insertion sites with their linker libraries) were pooled and transformed into a strain of E. coli with a mutation on the genomic copy of dnaN that made the protein temperature sensitive (dnaN protein from genome is non-functional at 42° C. and it is bactericidal lethal).
The transformants were grown at 42° C. (lethal temperature for genomic copy so as to force bacteria to rely on the plasmid copies with the uniRapR insertions) as well as with the addition of 10 uM rapamycin (to complement the function of any rapamycin-dependent insertional fusion dnaN mutants) and allowed to grow overnight.
The extracted plasmid DNA was re-transformed into fresh dnaN-temperature sensitive strains and grown on LB agar supplemented with rapamycin at 42° C. The next day colonies were picked and re-spotted onto LB agar plates with or without rapamycin and grown at 42° C. […] The biological replicates of a 10-fold serial dilution of the rapamycin-dependent mutant grown without rapamycin (clear columns) or with 2.5 micromolar rapamycin (columns with growth) were prepared. All growth took place at 42° C.

The test system of test [2] is dnaN-intein-iFKBP fusion mutants. The test can be described thus: Growth of dnaN-intein-iFKBP mutants with complementing ligands at 42° C. The following applies: LB agar. The method, then: A variety of saturation mutagenesis libraries targeting a combination of surface exposed and semi-buried residues on the intein structure were then designed, ignoring the iFKBP domain as well as the dnaN sequence. The resulting plasmid library was then transformed into dnaN-temperature sensitive strains (dnaN-temp sensitive on the genome). The resulting transformants were grown on LB agar plates containing 5 chemicals: rapamycin, saccharin, acetaminophen, raspberry ketone, and benzothiazole. These chemicals were chosen based on being either useful commercially or likely to result in the desired phenotype. As before the library was grown at 42° C. so that the strains would have to rely on the plasmid borne mutagenized copies of the dnaN-intein-iFKBP fusion proteins.
The next day the libraries were scraped, and transferred to fresh media for a penicillin technique counter selection performed exactly as described before with FIG. 2 and FIG. 3. After the negative selection, intact cells were mini-prepped and the DNA was re-transformed into fresh cells and the transformants were grown on the same chemicals as indicated above at 42° C.
The next day, colonies were picked, serially diluted tenfold and spotted onto plain LB agar plates and LB agar plates containing a pool of candidate complementing ligands and grown at 42° C. (to uncover phenotype of plasmid born copy of dnaN). […]

For a further test, the system named is metG.GL15. In words: Chemical complementation of growth of ligand-dependent strain metG.GL15. The note with it: panel of 30 additional ligands. The procedure: as §1, §2
To characterize the specificity of the produced ligand-dependent strains towards ligands, all strains were examined for complementation by a panel of 30 additional ligands. […]

SMILES strings stand for the structures.

For the compound `c1ccc2scnc2c1` [benzothiazole], the complementation of growth result with pheS.GL2 (1 mM benzothiazole) is listed as “strongly complemented”. Besides, in the test on tyrS.GL7, the “concentration range of dose-dependent growth” value is 250 to 1000 µM. In test [1], the “nonspecific chemical complementation (growth)” value is given as “no growth was detected”. Further, the “colony size relative to no ligand (by eye)” value in test [2] was 2-5 times.
In the case of `COC(=O)[C@@H](N)Cc1c[nH]cn1` [L-histidine methyl ester], the complementation of growth result in the test with metG.GL15 is reported as “complement”.
On to `CO[C@H]1C[C@@H]2CC[C@@H](C)[C@@](O)(O2)C(=O)C(=O)N2CCCC[C@H]2C(=O)O[C@H]([C@H](C)C[C@@H]2CC[C@@H](O)[C@H](OC)C2)CC(=O)[C@H](C)/C=C(\C)[C@@H](O)[C@@H](OC)C(=O)[C@H](C)C[C@H](C)/C=C/C=C/C=C/1C` [rapamycin], for which, in test [1] (42° C.), the “rapamycin concentration of highest activity (dose-dependent growth)” value was in the range of 1 to 10 µM.
Take `c1ccc2[nH]ccc2c1` [indole]: the complementation of growth result is on record as “strongly complemented” in the test on pheS.GL2 (0.5 mM indole) and “complemented” in the test on tyrS.GL7. The “nonspecific chemical complementation (growth)” value in test [1] was “no growth was detected”.
For `O=C(O)Cc1c[nH]c2ccccc12` [Indole-3-acetic acid], the complementation of growth entry in the test with metG.GL15 is listed as “complement”.
